Assay results reported in patent publication US20110184178A1, “POLYMORPHS OF 5-(3-(ETHYLSULFONYL)PHENYL)-3,8-DIMETHYL-N-(1-METHYLPIPERIDIN-4-YL)-9H-PYRIDO[2,3-B]INDOLE-7-CARBOXAMIDE AND METHODS OF USE THEREFOR” (Takeda Pharmaceutical Company Limited, priority 2008, published 2011).
Where a name gives a salt, the structure may show the parent alone. Values belong to the compound of their own block, whether it stands above or below them.

Assays:
Format in all cases: physicochemical
[1] = Solubility study of Form A in de-ionized water and 20 mM phosphate buffer at pH 3.2 (HPLC, XRPD of solids); settings: for solubility: thermodynamic from solid
Method: Solubility was determined for Form A of Compound I by suspending the material in de-ionized water and 20 mM phosphate buffer at pH 3.2 and ambient temperature. Approximately 40 mg of Form A of Compound I was charged to 2-dram amber vials equipped with magnetic stir bars, followed by the addition of DI water or phosphate buffer (2.0 mL) in one portion. The samples were allowed to equilibrate with stirring for 16 h, followed by centrifugation. An aliquot of the supernatant liquid was analyzed by HPLC, and the solids isolated by filtration and dried under vacuum at ambient temperature for analysis by XRPD. Samples were allowed to stir for an additional 6 days and concentration determined by HPLC.

[2] = Moisture-sorption analysis (gravimetric adsorption/desorption, 25° C.)
Method: Further, the material gained enough water to form the dihydrate in approximately 45 minutes at 30% RH during adsorption and lost enough water to form the anhydrate at 15% RH during desorption in less than 60 minutes. […] The sample was further allowed to equilibrate at ambient laboratory conditions overnight and reanalyzed by XRPD. […] The moisture sorption experiment of Form C of Compound I provides a curve similar to the Form A curve (FIG. 11). […] Further, the material gained enough water to form the dihydrate in less than 60 minutes at 30% RH during adsorption and lost enough water to form the anhydrate at 15% RH during desorption in approximately 80 minutes. […] Moisture-sorption experiments were carried out on all samples by first drying the sample at 0% RH and 25° C. until an equilibrium weight was reached or for a maximum of four hours. The sample was then subjected to an isothermal (25° C.) adsorption scan from 10 to 90% RH in steps of 10%. Samples were then allowed to equilibrate to an asymptotic weight at each point for a maximum of four hours. Following adsorption, a desorption scan from 85 to 0% RH (at 25° C.) was run in steps of −10% again allowing a maximum of four hours for equilibration to an asymptotic weight. Samples were dried for one hour at 80° C. and the resulting solids analyzed by XRPD.

[3] = Physical characterization of the polymorphs and salt (XRPD, DSC, TGA, 1H-NMR, KF, moisture sorption): stability assessment; settings: solid form
Method: Described herein are Form A, Form B, Form C, Form D, Form E, Form F and Form G of Compound I. Various tests were performed in order to physically characterize the polymorphs of Compound I, including X-ray powder diffraction (XRPD), differential scanning calorimetry (DSC), thermogravimetric analysis (TGA), solution proton nuclear magnetic resonance (^1H-NMR), and moisture sorption and desorption analysis (M S/Des). Detailed experimental conditions for each of the analytical techniques are described in the Examples section. […] A summary of these experiments and the results are presented below and in Table 12.

[4] = Approximate solubility screen of Compound I in different solvents; settings: for solubility: organic solvent or mixture, thermodynamic from solid
Method: A solubility screen of Compound I was evaluated in 20 different solvents chosen as MeCN, dioxane, acetone, MtBE, EtOH, EtOAc, IPAc, IPA, THF, 2-MeTHF, MEK, DMF, AcOH, MeOH, cyclohexane, heptane, DCM, toluene, NMP, and DMAc, to select appropriate primary and binary solvents for the polymorph screen. One to four mg of the Compound I was charged to 2-dram clear vials equipped with magnetic stir bars and solvent was added in 250-μL portions with heating to 55° C. until complete dissolution was observed or a maximum of 6 mL was added. […] Solvents and other reagents were of ACS or HPLC grade and were used as received.

[5] = Slurry experiments (form by XRPD after slurrying in a solvent); settings: 2.0 mL
Method: 50 to 60 mg of Form A of Compound I was weighed out into 2 dram amber vials and the material was slurried in 2 mL of a solvent. The slurry experiments were carried out at either ambient temperature or at 40° C. Samples were obtained from slurries after one day, one week, and two weeks. Tables 15 and 16 detail the results of the slurry experiments.

[6] = Form A slurried in water, 40 ° C.
[7] = Form A slurried in water, Ambient

Compound: CCS(=O)(=O)c1cccc(-c2cc(C(=O)NC3CCN(C)CC3)c(C)c3[nH]c4ncc(C)cc4c23)c1 [Form B, 5-(3-(ethylsulfonyl)phenyl)-3,8-dimethyl-N-(1-methylpiperidin-4-yl)-9H-pyrido[2,3-b]indole-7-carboxamide]
stability (based on the available characterization data) [3]: stable under ambient non-aqueous conditions

Compound: CCS(=O)(=O)c1cccc(-c2cc(C(=O)NC3CCN(C)CC3)c(C)c3[nH]c4ncc(C)cc4c23)c1 [Form E, 5-(3-(ethylsulfonyl)phenyl)-3,8-dimethyl-N-(1-methylpiperidin-4-yl)-9H-pyrido[2,3-b]indole-7-carboxamide]
stability (based on the available characterization data) [3]: stable under ambient non-aqueous conditions

Compound: CCS(=O)(=O)c1cccc(-c2cc(C(=O)NC3CCN(C)CC3)c(C)c3[nH]c4ncc(C)cc4c23)c1 [Form D, 5-(3-(ethylsulfonyl)phenyl)-3,8-dimethyl-N-(1-methylpiperidin-4-yl)-9H-pyrido[2,3-b]indole-7-carboxamide]
stability (based on the available characterization data) [3]: stable under ambient non-aqueous conditions

Further lines, with some results ahead:

form conversion in aqueous media ([1]; during the solubility determination): converted to Form A
time to lose enough water to form the anhydrate ([2]; at 15% RH during desorption): approximately 80 minutes
time to gain enough water to form the dihydrate ([2]; at 30% RH during adsorption): less than 60 minutes
Compound: CCS(=O)(=O)c1cccc(-c2cc(C(=O)NC3CCN(C)CC3)c(C)c3[nH]c4ncc(C)cc4c23)c1 [Form C, 5-(3-(ethylsulfonyl)phenyl)-3,8-dimethyl-N-(1-methylpiperidin-4-yl)-9H-pyrido[2,3-b]indole-7-carboxamide]
hydration state in the moisture sorption experiment ([2]; during both adsorption and desorption, 25° C.): convert to a stable dihydrate above 20% RH
stability (based on the available characterization data) [3]: stable under ambient low humidity conditions

solubility ([1]; aqueous buffer, 20 mM phosphate buffer at pH 3.2): < 100 µg/mL
solubility ([1]; de-ionized water, water): < 100 µg/mL
Soluble ([4]; 2-Me—THF, 1.6 mg, 5.75 mL, heating to 55° C.): No
Soluble ([4]; AcOH, 2.1 mg in 0.75 mL, Temp RT): Yes
Conc. ([4]; AcOH, Temp RT, 2.1 mg in 0.75 mL): 2.80 mg/mL
Soluble ([4]; DCM, 2.6 mg, 4.50 mL, heating to 55° C.): No
Soluble ([4]; DMA, 2.8 mg in 0.50 mL, Temp 55): Yes
Conc. ([4]; DMA, Temp 55, 2.8 mg in 0.50 mL): 5.60 mg/mL
Soluble ([4]; DMF, 1.8 mg in 0.50 mL, Temp RT): Yes
Conc. ([4]; DMF, Temp RT, 1.8 mg in 0.50 mL): >3.60 mg/mL
Soluble ([4]; EtOAc, 2.2 mg, 5.75 mL, heating to 55° C.): No
Soluble ([4]; EtOH, 1.6 mg in 4.75 mL, Temp 55): Yes
Conc. ([4]; EtOH, Temp 55, 1.6 mg in 4.75 mL): 0.34 mg/mL
Soluble ([4]; Heptane, 1.9 mg, 3.50 mL, heating to 55° C.): No
Soluble ([4]; IPAC, 2.6 mg, 5.75 mL, heating to 55° C.): No
Soluble ([4]; MTBE, 1.3 mg, 5.75 mL, heating to 55° C.): No
Soluble ([4]; MeCN, 1.7 mg in 5.75 mL, Temp 55): Yes
Conc. ([4]; MeCN, Temp 55, 1.7 mg in 5.75 mL): 0.30 mg/mL
Soluble ([4]; MeOH, 1.7 mg in 2.00 mL, Temp 55): Yes
Conc. ([4]; MeOH, Temp 55, 1.7 mg in 2.00 mL): 0.85 mg/mL
Soluble ([4]; NMP, 2.4 mg in 0.50 mL, Temp 55): Yes
Conc. ([4]; NMP, Temp 55, 2.4 mg in 0.50 mL): 4.80 mg/mL
Soluble ([4]; THF, 1.3 mg in 3.75 mL, Temp 55): Yes
Conc. ([4]; THF, Temp 55, 1.3 mg in 3.75 mL): 0.35 mg/mL
Soluble ([4]; Toluene, 1.8 mg, 3.50 mL, heating to 55° C.): No
Soluble ([4]; c-Hexane (cyclohexane), 1.8 mg, 3.50 mL, heating to 55° C.): No
solubility (in words) ([4]; in MeCN, MTBe, EtOAc, IPAc, IPA, THF, MEK, heptane and water): Poor solubility
solubility (in words) ([4]; in MeOH, DMF, DMA, NMP, CHCl3, AcOH and EtOH): Good solubility
solubility (in words) ([4]; in polar solvents including MeCN, EtOH, THF, DMF, AcOH, MeOH, NMP, and DMAc): appreciable solubility
solubility ([4]; Acetone, 1.8 mg, 5.75 mL, heating to 55° C.): < 330 µg/mL
solubility ([4]; Dioxane, 1.7 mg, 5.75 mL, heating to 55° C.): < 330 µg/mL
solubility ([4]; IPA, 1.2 mg, 5.75 mL, heating to 55° C.): < 330 µg/mL
solubility ([4]; MEK, 1.9 mg, 5.75 mL, heating to 55° C.): < 330 µg/mL
XRPD Results Day 1* ([5]; Form A slurried in Acetone, Ambient): amorphous
XRPD Results Day 1* ([5]; Form A slurried in MEK, Ambient): amorphous
XRPD Results Day 1* ([5]; Form A slurried in THF, Ambient): amorphous
XRPD Results Day 1* [5, 6]: amorphous
XRPD Results Week 1* [5, 6]: amorphous
XRPD Results Day 1* [5, 7]: amorphous
XRPD Results Week 1* [5, 7]: amorphous
Compound: CCS(=O)(=O)c1cccc(-c2cc(C(=O)NC3CCN(C)CC3)c(C)c3[nH]c4ncc(C)cc4c23)c1 [Compound I, 5-(3-(ethylsulfonyl)phenyl)-3,8-dimethyl-N-(1-methylpiperidin-4-yl)-9H-pyrido[2,3-b]indole-7-carboxamide]

stability (based on the available characterization data) [3]: stable under ambient conditions
Compound: CCS(=O)(=O)c1cccc(-c2cc(C(=O)NC3CCN(C)CC3)c(C)c3[nH]c4ncc(C)cc4c23)c1 [HPF6 salt of Compound I]
